Laboratory results as given in US8759537B2, “3H-imidazo [4, 5-C] pyridine-6-carboxamides as anti-inflammatory agents” (Boehringer Ingelheim International GmbH, priority 2010, dated 2014).

Tests used:
[1] = target: T1, mPGES-1 (Homo sapiens (Human), UniProt O14684); assay: mPGES-1 enzyme assay (HTRF detection of PGE2); format: biochemical
Method: Microsomes from Rosetta E. coli bacteria expressing recombinant human mPGES-1 can be derived as described below:
Inoculate 5 ml LB with Ampicilin (50 μg/ml) and Chloramphenicol (34 μg/ml) with bacteria from freeze culture. Incubate 8 h at 37° C. with 200 rpm. Thereafter, inoculate 500-1000 ml LB containing Amp and Chloro with the 5 ml on culture and grow to OD640 of 0.8-1.0. Chill the culture to +4° C. before induction. Induce the culture with IPTG at a final concentration of 400 μM. Express the protein at room temp 18-23° C. with 200 rpm shaking over night.
The following steps can be performed on the following day: • 1. Spin down the cells in 250 ml centrifuge flasks for 15 min at 7000 rpm (Beckmann Coulte Avanti J-E centrifuge) • 2. Dissolve the pellet from 250 ml culture in 12.5 ml homogenization buffer • 3. (15 mM Tris-HCL pH8, 1 mM EDTA pH8, […], 2.5 mM GSH, 1 Tablet Protease inhibitor per 50 ml buffer) • 4. […] Add 2.5 ml MgCl2 (100 mM) and DNase 12.5 μl (0.8 mg/ml) and incubate on ice for 30 min • 6. Spin down the bacteria debris and save the supernatant, 7000 rpm for 15 min • 7. Isolate the protein containing membranes in the supernatant by ultracentrifugation 120000×g for 2 hour at 4° C. (Sorvall T880 rotor). • 8. Discard the supernatant and dissolve the pellet in 20 mM Potassium phosphate buffer pH7.4 (KH2PO4 and K2HPO4) buffer by sonication (5×10 s, 30% of a 50 W sonifier) and aliquot the enzyme and store aliquots at −80° C.
Before each experiment is performed an aliquot of the enzyme is thawed and it can then be dissolved in 0.1 M Potassium phosphate buffer pH7.4 (KH2PO4 and K2HPO4) buffer containing 2.5 mM GSH.
The aim of this assay is to determine the affinity of a test compound for the mPGES-1 enzyme.
47 μl of recombinant human mPGES-1 (˜0.5 μg protein/well) containing microsomal suspension in a buffer containing GSH, (2.5 mmol/L L-Glutathione reduced, dissolved in 0.1 mol/L Phosphat Buffer pH 7.4) is dispensed in a 384-well plate and thereafter 1 μl of the test compound(s) is/are added and incubated for 25 minutes at room temperature. The enzyme reaction is started by the addition of 2 ul PGH2 (final conc. 2 μM) dissolved in water-free Diglyme. After 60 seconds the reaction is terminated by addition of a stop solution containing FeCl2 (10 μL 0.074 mol/l FeCl2). The samples are diluted between 1:25 in PBS (Phosphate Buffered Saline). 10 μl of the diluted samples are transferred to 384-well low volume plate. In order to quantify the amount of PGE2 that has been formed, a homogenous time resolved fluorescent (HTRF) detecting of PGE2 has been performed using a commercially available kit from Cisbio according to the manufactures recommendation. […] Briefly, the diluted samples are mixed with 5 μl PGE2-d2 conjungate and 5 μl anti-PGE2 cryptate conjungate. After an incubation period of the plates over night, the fluorescence is measured by the use of an appropriate microplate reader.
The quantification plate contains also wells with different concentrations of PGE2 as calibration curve for the calculation of the PGE2 concentrations from the HTRF ratio values.
From all mPGES enzyme assay the background is subtracted and the IC50 is calculated over a nonlinear regression with conventional software.

[2] = target: T1, mPGES-1; assay: A549 cell-based assay (PGE2 formation, IL-1β stimulated, 50% human serum); settings: A549 cells
In short: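 Human A549 cells (7000 cells/well) in F-12 medium with 50% human serum, with IL-1β stimulation. IC50 from 6-8 point titrations.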

[3] = recombinant human mPGES-1 microsomes, PGH2 2 μM, read-out: mPGES-1 inhibitory effect in the enzyme assay, IC50
[4] = IL-1β 5 ng/ml, read-out: mPGES-1 inhibitory effect in the cell assay, IC50
[5] = Table C comparison of selected benzimidazoles, read-out: Enzym IC50
[6] = Table C comparison of selected benzimidazoles, read-out: Cell IC50

T1 sequence (O14684 whole entry): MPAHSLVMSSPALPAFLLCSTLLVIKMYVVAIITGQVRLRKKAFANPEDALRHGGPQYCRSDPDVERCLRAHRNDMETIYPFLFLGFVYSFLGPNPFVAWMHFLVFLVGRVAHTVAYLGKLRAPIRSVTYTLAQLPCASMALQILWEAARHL

Row | Structure (SMILES) | IC50 [1, 3] | IC50 [2, 4] | IC50 [1, 5] | IC50 [2, 6]
1 | Cn1c(Nc2c(Cl)ccc(CNC(=O)C(C)(C)C)c2Cl)nc2cc(C(=O)Nc3cccc(Cl)c3F)c(OCC(F)F)cc21 [Example 73] | 2 nM | 1 nM |  | 
2 | Cn1c(Nc2c(Cl)ccc(CNC(=O)C(C)(C)C)c2Cl)nc2cc(C(=O)Nc3ccc(F)c(F)c3)c(OCC(F)F)cc21 [Example 74] | 9 nM | 1 nM |  | 
3 | Cn1c(Nc2c(Cl)ccc(CNC(=O)C(C)(C)C)c2F)nc2cc(C(=O)Nc3ccc(F)c(Cl)c3)c(OCC(F)F)cc21 [Example 75, N-(3-Chloro-4-fluoro-phenyl)-2-{6-chloro-2-fluoro-3-[(2,2-dimethyl-propionylamino)-methyl]-phenylamino}-6-(2,2-difluoroethoxy)-1-methyl-1H-benzimidazole-5-carboxylic acid amide] | 2 nM | < 1 nM |  | 
4 | Cn1c(Nc2c(Cl)ccc(CNC(=O)C(C)(C)C)c2F)nc2cc(C(=O)N[C@H]3CC[C@H](C(F)(F)F)CC3)c(OCC(F)F)cc21 [Example 76] | 3 nM | 2 nM |  | 
5 | Cn1c(Nc2c(Cl)ccc(CNC(=O)C(C)(C)C)c2F)nc2cc(C(=O)NCC(F)(F)F)c(OCC(F)F)cc21 [Example 77] | 2 nM | 12 nM |  | 
6 | Cn1c(Nc2c(Cl)ccc(CNC(=O)N3CC(F)(F)C3)c2Cl)nc2cc(C(=O)N[C@H]3CC[C@H](C(F)(F)F)CC3)c(OCC(F)F)cc21 [Example 80, N-(trans-4-Trifluoromethyl-cyclohex-1-yl)-2-{2,6-dichloro-3-[(3,3-difluoro-azetidine-1-carbonylamino)-methyl]-phenylamino}-6-(2,2-difluoroethoxy)-1-methyl-1H-benzimidazole-5-carboxylic acid amide] | 1 nM | 7 nM |  | 
7 | Cn1c(Nc2c(Cl)ccc(CNC(=O)N3CCC(F)(F)C3)c2Cl)nc2cc(C(=O)N[C@H]3CC[C@H](C(F)(F)F)CC3)c(OCC(F)F)cc21 [Example 81] | 3 nM | 50 nM |  | 
8 | CC1CCCN1C(=O)NCc1ccc(Cl)c(Nc2nc3cc(C(=O)N[C@H]4CC[C@H](C(F)(F)F)CC4)c(OCC(F)F)cc3n2C)c1Cl (some centres unmarked) [Example 82] | 1 nM | 43 nM |  | 
9 | Cn1c(Nc2c(Cl)ccc(CNC(=O)C(C)(C)C)c2Cl)nc2cc(C(=O)Nc3c(F)ccc(F)c3F)c(OCC(F)F)cc21 [Example 85] | 1 nM | 4 nM |  | 
10 | COCCOc1cc2c(cc1C(=O)Nc1ccc(F)c(Cl)c1)nc(Nc1c(Cl)ccc(CNC(=O)C(C)(C)C)c1Cl)n2C [Example 178] | 1 nM | < 1 nM |  | 
11 | Cn1c(Nc2c(Cl)ccc(CNC(=O)C(C)(C)C)c2Cl)nc2cc(C(=O)Nc3ccc(F)c(Cl)c3)c(OC3CCOC3)cc21 (centres unmarked) [Example 179] | 1 nM | < 1 nM |  | 
12 | CC(C)(C)C(=O)NCc1ccc(Cl)c(Nc2nc3cc(C(=O)N[C@H]4CC[C@H](C(F)(F)F)CC4)c(F)c(F)c3[nH]2)c1Cl [Example 180] | 2 nM | 93 nM |  | 
13 | Cn1c(Nc2cc(CNC(=O)C(C)(C)C)ccc2Cl)nc2cc(C(=O)N[C@H]3CC[C@H](C(F)(F)F)CC3)c(OCC(F)F)cc21 [[drawing 47] of PCT/EP2010/052799, reference compound] |  |  | 3 nM | 17 nM
14 | Cn1c(Nc2c(Cl)ccc(CNC(=O)C(C)(C)C)c2Cl)nc2cc(C(=O)Nc3ccc(Br)cc3)c(OCC(F)F)cc21 [drawing 44] |  |  | 2 nM | < 1 nM
15 | Cn1c(Nc2c(Cl)ccc(CNC(=O)C(C)(C)C)c2Cl)nc2cc(C(=O)N[C@H]3CC[C@H](C(F)(F)F)CC3)c(OCC(F)F)cc21 [drawing 46] |  |  | 2 nM | < 1 nM
16 | Cn1c(Nc2c(Cl)ccc(CNC(=O)C(C)(C)C)c2Cl)nc2cc(C(=O)NCC3CC3)c(OCC(F)F)cc21 [drawing 48] |  |  | 4 nM | 1 nM
